As usually defined, the IC50 is the midpoint of a concentration-inhibition curve.

Bounds are passed on as bounds.

The target of one experiment is T1, human complement factor D (Homo sapiens, UniProt P00746).
T1 construct: purchased R&D Systems 1824-SE
T1 sequence (P00746 26-253): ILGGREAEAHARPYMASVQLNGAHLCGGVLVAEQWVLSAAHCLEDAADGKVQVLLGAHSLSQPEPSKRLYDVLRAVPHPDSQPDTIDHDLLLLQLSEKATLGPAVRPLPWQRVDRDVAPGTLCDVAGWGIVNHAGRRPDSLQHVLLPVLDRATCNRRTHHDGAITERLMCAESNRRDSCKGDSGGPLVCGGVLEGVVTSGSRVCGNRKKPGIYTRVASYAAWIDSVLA
In words: In vitro enzyme inhibition (Z-Lys-SBzl/DTNB absorbance assay). In kind it is biochemical.
Settings: not given
On the procedure: The ability of the compounds disclosed herein to inhibit human complement factor D inhibitory activity was quantified according to the 12-step protocol provided below. • 1. Prepare assay buffer: 50 mM Tris/HCl, pH 7.5, 1 M NaCl. • 2. Dilute 10 mM Complement Factor D inhibitor Nafamostat Mesilate (Selleckchem, Catalog #S1386) solution from 10000 μM to 9.77 μM in 100% DMSO, 8 concentrations. Then dilute the serial concentrations of Nafamostat Mesilate 20-fold in assay buffer. • 3. Add 10 μl diluted Nafamostat Mesilate duplicated into each of the inhibitor control well of a 96-well plate (Corning, Catalog #3599). Final concentrations were 50 μM, 25 μM, 12.5 μM, 6.25 μM, 3.125 μM, 0.781 μM, 0.195 μM and 0.049 μM. 0.5% DMSO was in each well finally. • 4. Dilute 20 mM test compounds from 10000 μM to […] in 100% DMSO, 6-fold dilution, 8 concentrations. Then dilute the serial concentrations of test compounds 20-fold in assay buffer. • 5. Add 10 μl diluted test compounds duplicated into the 96-well plate. Final concentrations were 50 μM, 8.33 μM, 1.39 μM, 0.23 μM, 0.0386 μM, 0.0064 μM, 0.0011 μM and 0.0002 μM. 0.5% DMSO was in each well finally. • 6. Dilute 20 mM substrate Z-Lys-SBzl (Bachem, Cat #M-1300) to 200 μM in assay buffer with 200 μM DTNB(Sigma, Catalog #D8130). • 7. Dilute 738 ng/μL Complement Factor D (R&D Systems, Catalog #1824-SE) to 6.25 ng/μL in assay buffer. Add 40 μl diluted Complement Factor D in the 96-well plate. • 8. Positive control well contains Complement Factor D without test compound. Negative control well contains neither Complement Factor D nor test compound. Using assay buffer, bring the total volume of all controls to 50 μl. • 9. Pre-incubate the plate for 5 min at room temperature. • 10. Add 50 μl of diluted substrate/DTNB mixture into each well. Mix the reagents completely by shaking the plate gently for 30 sec. • 11. For kinetic reading: Immediately start measuring absorbance (A405 nm) continuously and record data every 30sec for 60 min. • 12. Data analysis • Inhibition activity of compound was evaluated by IC50. IC50 was calculated according the dose-response curve of compound fitted using GraphPadPrism with “log(inhibitor)-response (variable slope)” equation. • % inhibition was calculated by using following equation:
[formula] • Mean(NC): The average value of the negative control wells' A405 nm values. • Mean(PC): The average value of the positive control wells' A405 nm values.
The ability of the compounds in Table 2 to inhibit human complement factor D inhibitory activity was determined.
As to `CC(=O)N1CCN(C(=O)Cn2nc(C(N)=O)c3ccccc32)[C@H](C(=O)Nc2cccc(C(F)(F)F)n2)C1` [Example 30, (S)-1-(2-(4-acetyl-2-((6-(trifluoromethyl)pyridin-2-yl)carbamoyl)piperazin-1-yl)-2-oxoethyl)-1H-indazole-3-carboxamide], the IC50 lay within 1 to 10 µM.

Still in this experiment, the particulars now being: Complement Factor D (R&D Systems), substrate Z-Lys-SBzl, A405 nm; read-out: CFD IC50.
For `CC(=O)N1CCN(C(=O)Cn2nc(C(N)=O)c3ccccc32)[C@H](C(=O)Nc2cccc(Cl)n2)C1` [Example 27, (S)-1-(2-(4-acetyl-2-((6-chloropyridin-2-yl)carbamoyl)piperazin-1-yl)-2-oxoethyl)-1H-indazole-3-carboxamide], the IC50 is 1 to 10 µM.

In the case of `CN1CCN(C(=O)Cn2nc(C(N)=O)c3ccccc32)[C@H](C(=O)Nc2cccc(Cl)n2)C1` [Example 28, (S)-1-(2-(2-((6-chloropyridin-2-yl)carbamoyl)-4-methylpiperazin-1-yl)-2-oxoethyl)-1H-indazole-3-carboxamide], the IC50 was 1 to 10 µM.

Regarding `NC(=O)c1nn(CC(=O)N2CCNC[C@H]2C(=O)Nc2cccc(C(F)(F)F)n2)c2ccccc12` [Example 29, (S)-1-(2-oxo-2-(2-((6-(trifluoromethyl)pyridin-2-yl)carbamoyl)piperazin-1-yl)ethyl)-1H-indazole-3-carboxamide], the IC50 was greater than 10 µM.

With `NC(=O)c1nn(CC(=O)N2CCCCC[C@H]2C(=O)NCc2cccc(Cl)c2F)c2ccccc12` [Example 31, (S)-1-(2-(2-((3-chloro-2-fluorobenzyl)carbamoyl)azepan-1-yl)-2-oxoethyl)-1H-indazole-3-carboxamide], the IC50 was 0.1 to 1 µM.

Regarding `NC(=O)c1nn(CC(=O)N2CCCCC[C@H]2C(=O)Nc2cccc(Cl)c2F)c2ccccc12` [Example 32, (S)-1-(2-(2-((3-chloro-2-fluorophenyl)carbamoyl)azepan-1-yl)-2-oxoethyl)-1H-indazole-3-carboxamide], the IC50 was 1 to 10 µM.

Turning to `NC(=O)c1nn(CC(=O)N2CCCNCC2C(=O)NCc2cccc(Cl)c2F)c2ccccc12` (centres unmarked) [Example 33, 1-(2-(2-((3-chloro-2-fluorobenzyl)carbamoyl)-1,4-diazepan-1-yl)-2-oxoethyl)-1H-indazole-3-carboxamide], the IC50 is greater than 10 µM.

Regarding `CC(=O)N1CCCN(C(=O)Cn2nc(C(N)=O)c3ccccc32)C(C(=O)NCc2cccc(Cl)c2F)C1` (centres unmarked) [Example 34, 1-(2-(4-acetyl-2-((3-chloro-2-fluorobenzyl)carbamoyl)-1,4-diazepan-1-yl)-2-oxoethyl)-1H-indazole-3-carboxamide], the IC50 is greater than 10 µM.

In the case of `NC(=O)c1nn(CC(=O)N2CCNCCC2C(=O)NCc2cccc(Cl)c2F)c2ccccc12` (centres unmarked) [Example 35, 1-(2-(7-((3-chloro-2-fluorobenzyl)carbamoyl)-1,4-diazepan-1-yl)-2-oxoethyl)-1H-indazole-3-carboxamide 2,2,2-trifluoroacetate], the half-inhibitory concentration (IC50) was 1 to 10 µM.

For the compound `NC(=O)c1nn(CC(=O)N2[C@@H]3CC[C@@H](C3)[C@H]2C(=O)Nc2cccc(Cl)c2F)c2cnccc12` [Example 36, 1-(2-((1R,3S,4S)-3-((3-chloro-2-fluorophenyl)carbamoyl)-2-azabicyclo[2.2.1]heptan-2-yl)-2-oxoethyl)-1H-pyrazolo[3,4-c]pyridine-3-carboxamide], the IC50 lay in the range of 1 to 10 µM.

On to `NC(=O)c1nn(CC(=O)N2[C@@H]3CC[C@@H](C3)[C@H]2C(=O)NCc2cccc(Cl)c2F)c2cnccc12` [Example 39, 1-(2-((1R,3S,4S)-3-((3-chloro-2-fluorobenzyl)carbamoyl)-2-azabicyclo[2.2.1]heptan-2-yl)-2-oxoethyl)-1H-pyrazolo[3,4-c]pyridine-3-carboxamide], for which the IC50 was 0.1 to 1 µM.

Consider `NC(=O)c1nn(CC(=O)N2[C@@H]3CC[C@@H](C3)[C@H]2C(=O)Nc2cccc(OC(F)(F)F)c2F)c2ccccc12` [Example 41, 1-(2-((1R,3S,4S)-3-((2-fluoro-3-(trifluoromethoxy)phenyl)carbamoyl)-2-azabicyclo[2.2.1]heptan-2-yl)-2-oxoethyl)-1H-indazole-3-carboxamide], for which the IC50 fell in the range of 1 to 10 µM.

Consider `NC(=O)c1nn(CC(=O)N2[C@@H]3CC[C@@H](C3)[C@H]2C(=O)Nc2cccc(OC(F)(F)F)c2F)c2cnccc12` [Example 42, 1-(2-((1R,3S,4S)-3-((2-fluoro-3-(trifluoromethoxy)phenyl)carbamoyl)-2-azabicyclo[2.2.1]heptan-2-yl)-2-oxoethyl)-1H-pyrazolo[3,4-c]pyridine-3-carboxamide], for which the IC50 is 1 to 10 µM.

Turning to `NC(=O)c1nn(CC(=O)N2[C@@H]3CC[C@@H](C3)[C@H]2C(=O)Nc2cccc(-c3ccccc3Cl)n2)c2ccccc12` [Example 44, 1-(2-((1R,3S,4S)-3-((6-(2-chlorophenyl)pyridin-2-yl)carbamoyl)-2-azabicyclo[2.2.1]heptan-2-yl)-2-oxoethyl)-1H-indazole-3-carboxamide], the IC50 lay within 0.1 to 1 µM.

As for `NC(=O)c1nn(CC(=O)N2[C@@H]3CC[C@@H](C3)[C@H]2C(=O)Nc2cnc3ccccc3n2)c2ccccc12` [Example 45, 1-(2-oxo-2-((1R,3S,4S)-3-(quinoxalin-2-ylcarbamoyl)-2-azabicyclo[2.2.1]heptan-2-yl)ethyl)-1H-indazole-3-carboxamide], the IC50 fell in the range of 1 to 10 µM.

In the case of `NC(=O)c1nn(CC(=O)N2[C@@H]3CC[C@@H](C3)[C@H]2C(=O)Nc2cccc(-c3ccccc3F)n2)c2ccccc12` [Example 46, 1-(2-((1R,3S,4S)-3-((6-(2-fluorophenyl)pyridin-2-yl)carbamoyl)-2-azabicyclo[2.2.1]heptan-2-yl)-2-oxoethyl)-1H-indazole-3-carboxamide], the IC50 is greater than 10 µM.

`NC(=O)c1nn(CC(=O)N2[C@@H]3CC[C@@H](C3)[C@H]2C(=O)NCc2ccc3[nH]cc(Cl)c3c2F)c2ccccc12` [Example 47, 1-(2-((1R,3S,4S)-3-(((3-chloro-4-fluoro-1H-indol-5-yl)methyl)carbamoyl)-2-azabicyclo[2.2.1]heptan-2-yl)-2-oxoethyl)-1H-indazole-3-carboxamide]: the half-inhibitory concentration (IC50) was greater than 10 µM.

Consider `NC(=O)c1nn(CC(=O)N2[C@@H]3CC[C@@H](C3)[C@H]2C(=O)NCc2cnc3[nH]cc(Cl)c3c2)c2ccccc12` [Example 48, 1-(2-((1R,3S,4S)-3-(((3-chloro-1H-pyrrolo[2,3-b]pyridin-5-yl)methyl)carbamoyl)-2-azabicyclo[2.2.1]heptan-2-yl)-2-oxoethyl)-1H-indazole-3-carboxamide], for which the concentration for half-maximal inhibition (IC50) was greater than 10 µM.

Consider `N#Cc1cccc(NC(=O)[C@@H]2[C@H]3CC[C@H](C3)N2C(=O)Cn2nc(C(N)=O)c3ccccc32)n1` [Example 49, 1-(2-((1R,3S,4S)-3-((6-cyanopyridin-2-yl)carbamoyl)-2-azabicyclo[2.2.1]heptan-2-yl)-2-oxoethyl)-1H-indazole-3-carboxamide], for which the IC50 fell in the range of 1 to 10 µM.

As for `COc1cccc(NC(=O)[C@@H]2[C@H]3CC[C@H](C3)N2C(=O)Cn2nc(C(N)=O)c3ccccc32)n1` [Example 50, 1-(2-((1R,3S,4S)-3-((6-methoxypyridin-2-yl)carbamoyl)-2-azabicyclo[2.2.1]heptan-2-yl)-2-oxoethyl)-1H-indazole-3-carboxamide], the IC50 fell in the range of 1 to 10 µM.

Turning to `NC(=O)c1nn(CC(=O)N2[C@@H]3CC[C@@H](C3)[C@H]2C(=O)Nc2cc(Cl)ccn2)c2ccccc12` [Example 51, 1-(2-((1R,3S,4S)-3-((4-chloropyridin-2-yl)carbamoyl)-2-azabicyclo[2.2.1]heptan-2-yl)-2-oxoethyl)-1H-indazole-3-carboxamide], the IC50 fell in the range of 1 to 10 µM.

For `NC(=O)c1nn(CC(=O)N2[C@@H]3CC[C@@H](C3)[C@H]2C(=O)NCc2cccc(Cl)n2)c2ccccc12` [Example 52, 1-(2-((1R,3S,4S)-3-(((6-chloropyridin-2-yl)methyl)carbamoyl)-2-azabicyclo[2.2.1]heptan-2-yl)-2-oxoethyl)-1H-indazole-3-carboxamide], the IC50 was greater than 10 µM.

As to `NC(=O)c1nn(CC(=O)N2[C@@H]3CC[C@@H](C3)[C@H]2C(=O)Nc2cccc(F)n2)c2ccccc12` [Example 53, 1-(2-((1R,3S,4S)-3-((6-fluoropyridin-2-yl)carbamoyl)-2-azabicyclo[2.2.1]heptan-2-yl)-2-oxoethyl)-1H-indazole-3-carboxamide], the IC50 is 1 to 10 µM.

The values above are taken from patent publication US20190127366A1 (LifeSci Pharmaceuticals, Inc., priority 2015, published 2019).
